Data taken from PubChem BioAssay AID1996.
Values after ≈ are worked out from the molar mass of the structure shown.

Details: buffer; pH 7.4; 200.0 µM

First: O=C(COC(=O)c1ccc([N+](=O)[O-])o1)NC12CC3CC(CC(C3)C1)C2
Second: O=C1CN(C(=O)COC(=O)c2ccc(Br)o2)c2ccccc2N1
The solubility kinetic of the first is higher: greater than 0.0523 mg/mL for the first, 0.0095 mg/mL (≈ 25.1 µM) for the second.

First: O=C(NC1CCCCC1)c1cc(-c2ccccc2O)on1
Second: Cc1ccc(OCc2cc(C(=O)NC3CCCCC3)no2)cn1
The solubility kinetic of the first is 57-fold lower: 0.0006 mg/mL (≈ 2.1 µM) for the first, 0.034 mg/mL (≈ 108 µM) for the second.

First: Cc1ccc(S(=O)(=O)NC(=O)Nc2ccccc2)cc1
Second: CC(=O)N/C(=C\c1ccccc1)C(=O)Nc1ccc(O)cc1
The solubility kinetic of the first is lower: 0.0418 mg/mL (≈ 144 µM) for the first, greater than 0.0444 mg/mL for the second.

`O=c1c2cc([N+](=O)[O-])ccc2nc2n1CCCC2` and `O=c1sc2ccccc2c(N2CCCC2)c1[N+](=O)[O-]` cannot be ordered by solubility kinetic: greater than 0.0368 mg/mL for the first, greater than 0.0414 mg/mL for the second.

`CCOC(=O)C1CCN(C(=O)COC(=O)CSc2ccccc2C)CC1` and `CS(=O)(=O)N(CC(=O)N1CCCC1)Cc1ccccc1` cannot be ordered by solubility kinetic: greater than 0.0569 mg/mL for the first, greater than 0.0445 mg/mL for the second.

First: CC(C)(C)C(=O)/C=C1\SCC(=O)N1CC(=O)N1CCN(c2ccccc2)CC1
Second: Cc1cc(C(=O)N2CCN(c3ccccc3O)CC2)c(C)o1
The solubility kinetic of the first is lower: 0.0337 mg/mL (≈ 83.9 µM) for the first, greater than 0.0451 mg/mL for the second.

First: Cn1cccc1C(=O)OCC(=O)Nc1ccc2c(c1)OCCO2
Second: O=C(CNC(=O)c1ccco1)NCc1ccc2c(c1)OCO2
The solubility kinetic of the first is 7.2-fold lower: 0.0048 mg/mL (≈ 15.2 µM) for the first, 0.0346 mg/mL (≈ 114 µM) for the second.

Going from `O=C(Nc1sc(-c2ccccc2)cc1C(=O)O)c1ccccc1` to `O=C(CNS(=O)(=O)c1ccccc1)N1CCc2ccccc2C1`, the solubility kinetic rises from 0.0451 mg/mL (≈ 139 µM) to greater than 0.0496 mg/mL.

Going from `CC(=O)Nc1ccc(S(=O)(=O)NCC2CCCO2)cc1` (stereo not given) to `CC(C)(C)NS(=O)(=O)c1ccc(NC(=S)NC(=O)C2CCC2)cc1`, the solubility kinetic falls from greater than 0.0448 mg/mL to 0.0011 mg/mL (≈ 2.98 µM).

Compared with `CC(C)(C)c1cc(CCC(=O)N2CCCC2)cc(C(C)(C)C)c1O`, `CN1CCN(C(=O)CCC(=O)O)CC1` is 1.7-fold lower in solubility kinetic: 0.0438 mg/mL (≈ 132 µM) for the first, 0.0265 mg/mL (≈ 132 µM) for the second.

`O=C(O)CNC(=O)/C=C/c1ccc(Cl)cc1Cl` and `CC(C)[C@H](NC(=O)c1ccccc1)C(=O)OCC(=O)Nc1ncc(Cl)cc1Cl` are within 1.5-fold of each other in solubility kinetic: 0.0376 mg/mL (≈ 137 µM) for the first, 0.046 mg/mL (≈ 108 µM) for the second.

Going from `COc1ccccc1C(=O)NCCNc1ccc([N+](=O)[O-])cc1Cl` to `COc1ccc(NC(=O)c2ccc(F)c(F)c2)c2ccccc12`, the solubility kinetic falls from 0.0007 mg/mL (≈ 2 µM) to less than 0.0007 mg/mL.

Going from `Cc1ccc(N2CCCC2=O)cc1S(=O)(=O)N1CCOCC1` to `O=C(C1CCN(S(=O)(=O)c2ccc(Cl)cc2)CC1)N1CCCC1`, the solubility kinetic falls from greater than 0.0487 mg/mL to 0.0359 mg/mL (≈ 101 µM).

First: COc1ccc(Nc2cc(Nc3ccccc3)ncn2)cc1
Second: COc1ccc(Nc2ccncc2[N+](=O)[O-])cc1
The solubility kinetic of the first is lower: less than 0.0002 mg/mL for the first, greater than 0.0368 mg/mL for the second.

Compared with `Cc1ccccc1OCC(=O)OCC(=O)Nc1ccc(Cl)cn1`, `CCc1ccccc1NC(=O)CN(C)C(=O)COC(=O)c1cccnc1Cl` is higher in solubility kinetic: 0.0472 mg/mL (≈ 141 µM) for the first, greater than 0.0585 mg/mL for the second.

Compared with `COC(=O)CNc1nc(Cl)nc(NC2CCCCC2)n1`, `Cc1ccc(OCC(=O)NC2CCCCCC2)cc1C` is 8.1-fold lower in solubility kinetic: 0.0277 mg/mL (≈ 92.4 µM) for the first, 0.0034 mg/mL (≈ 12.3 µM) for the second.

`CN(CC(=O)NCc1cccnc1)S(=O)(=O)c1ccc(F)cc1` and `CN(CC(=O)N(C)CC(=O)Nc1c(Cl)cccc1Cl)Cc1ccccc1F` cannot be ordered by solubility kinetic: greater than 0.0506 mg/mL for the first, greater than 0.0618 mg/mL for the second.

`CSc1nsc(SCC(=O)Nc2ccc(O)c(C(=O)O)c2)n1` and `CCCc1c(O)nc(SCC(=O)NCc2ccco2)[nH]c1=O` cannot be ordered by solubility kinetic: greater than 0.0536 mg/mL for the first, greater than 0.0485 mg/mL for the second.

Compared with `c1cncc(C2OCC3(CO2)COC(c2cccnc2)OC3)c1` (stereo not given), `O=C(NCC1CCCO1)c1csc(Nc2cccc3ccccc23)n1` (stereo not given) is lower in solubility kinetic: greater than 0.0472 mg/mL for the first, 0.0285 mg/mL (≈ 80.6 µM) for the second.

Compared with `CCn1c(O)c(C#N)c(C)cc1=O`, `CSc1nc(-c2ccc(Cl)cc2)c(C#N)c(=O)n1C` is lower in solubility kinetic: greater than 0.0267 mg/mL for the first, less than 0.0002 mg/mL for the second.

`S=C(Nc1ccccc1)NC1CCN(Cc2ccccc2)CC1` and `O=C(NC1CCCC1)C1CC(O)CN1C(=O)Nc1ccccc1` (stereo not given) cannot be ordered by solubility kinetic: greater than 0.0488 mg/mL for the first, greater than 0.0476 mg/mL for the second.

`CC(C(N)=O)N1C(=O)NC2(CCCc3ccccc32)C1=O` (stereo not given) and `O=C(CN1C(=O)C(=O)N(C2CCCC2)C1=O)Nc1ccccc1OC(F)F` cannot be ordered by solubility kinetic: greater than 0.0431 mg/mL for the first, greater than 0.0572 mg/mL for the second.

First: COC(=O)c1cc(S(=O)(=O)N2CCCCC2C)c[nH]1 (stereo not given)
Second: COC(=O)c1cc(-c2cccc(OC)c2)c2c(=O)[nH]c(=O)n(C)c2n1
The solubility kinetic of the first is higher: greater than 0.043 mg/mL for the first, 0.0034 mg/mL (≈ 9.96 µM) for the second.

`O=C(NN1CCOCC1)c1ccco1` and `Cl.Clc1cccc(N2CCNCC2)c1` cannot be ordered by solubility kinetic: greater than 0.0294 mg/mL for the first, greater than 0.035 mg/mL for the second.

First: COc1ccc(C(=O)NCC(C)(C)CNC(=O)c2ccc(OC)cc2)cc1
Second: COc1ccc(/C=C(\C#N)C(=O)Nc2ccccn2)cc1
The solubility kinetic of the first is 3.1-fold higher: 0.011 mg/mL (≈ 29.7 µM) for the first, 0.0035 mg/mL (≈ 12.5 µM) for the second.

Going from `COc1cccc2cc(C(=O)N3CCCCCCC3)c(=O)oc12` to `CCOC(=O)c1[nH]cnc1C(=O)Nc1cccc(OC)c1`, the solubility kinetic falls from greater than 0.0473 mg/mL to 0.0044 mg/mL (≈ 15.2 µM).

Compared with `Cc1ccc(OCC(=O)NCCCNC(=O)c2cnccn2)cc1C`, `CCOC(=O)c1[nH]cnc1C(=O)Nc1ccc(C)cc1` is 10-fold lower in solubility kinetic: 0.0499 mg/mL (≈ 146 µM) for the first, 0.0049 mg/mL (≈ 17.9 µM) for the second.

First: Cc1nc(N2CCC(C)CC2)c(C#N)c(C)c1[N+](=O)[O-]
Second: Cc1ccc(/C=C2\CCn3c2nc2cc(C(=O)O)ccc2c3=O)c(C)c1
The solubility kinetic of the first is 51-fold lower: 0.0009 mg/mL (≈ 3.28 µM) for the first, 0.0457 mg/mL (≈ 132 µM) for the second.

`CC(C)NC(=O)NC(=O)COC(=O)C1(C)CC1(Cl)Cl` (stereo not given) and `O=C(O)CCSc1nnc(SCC(=O)NC2CCS(=O)(=O)C2)s1` (stereo not given) cannot be ordered by solubility kinetic: greater than 0.0467 mg/mL for the first, greater than 0.0596 mg/mL for the second.

First: Nc1[nH]c2cc([N+](=O)[O-])ccc2c1-c1ccccn1
Second: Cc1cc(NC(=O)CN2C(=O)c3ccccc3C2=O)no1
The solubility kinetic of the first is 27-fold lower: 0.0014 mg/mL (≈ 5.51 µM) for the first, 0.0379 mg/mL (≈ 133 µM) for the second.
